Experimental data taken from patent publication US6162823A, “LTA4 hydrolase inhibitors” (G.D. Searle & Co., priority 1997, dated 2000).
pIC50: −log10 of the molar value. Structures can show the parent of a compound that is named as a salt. Where two headings read alike, the source gives them in different places.

Tests used:
[1] = target: T1, recombinant human LTA4 hydrolase (rhLTAH) (Homo sapiens, UniProt P09960); assay: Recombinant Human LTA Hydrolase Assay for LTA Hydrolase Inhibitor Activity; type: biochemical; settings: 10 min preincubation with 250 ng enzyme, LTA4 substrate, room temperature, pH 7.4
T1 construct: made in house; host or cells: Spodoptera frugiperda Sf-9 cells (baculovirus)
T1 sequence (P09960 1-611): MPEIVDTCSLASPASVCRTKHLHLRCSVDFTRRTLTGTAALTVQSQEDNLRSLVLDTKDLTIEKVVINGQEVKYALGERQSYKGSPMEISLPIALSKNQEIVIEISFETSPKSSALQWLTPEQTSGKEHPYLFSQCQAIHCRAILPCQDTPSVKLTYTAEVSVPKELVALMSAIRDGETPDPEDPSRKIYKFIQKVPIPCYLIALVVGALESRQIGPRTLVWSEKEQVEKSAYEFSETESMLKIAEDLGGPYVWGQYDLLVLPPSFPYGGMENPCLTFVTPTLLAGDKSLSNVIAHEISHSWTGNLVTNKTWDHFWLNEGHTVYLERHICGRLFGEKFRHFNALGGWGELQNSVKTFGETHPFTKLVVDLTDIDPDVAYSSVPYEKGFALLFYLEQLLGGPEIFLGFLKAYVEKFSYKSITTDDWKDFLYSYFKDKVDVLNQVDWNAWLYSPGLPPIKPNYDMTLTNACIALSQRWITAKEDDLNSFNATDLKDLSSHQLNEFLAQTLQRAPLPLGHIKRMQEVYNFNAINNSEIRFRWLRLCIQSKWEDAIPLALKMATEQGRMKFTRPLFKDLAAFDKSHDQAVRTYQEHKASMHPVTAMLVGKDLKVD
Description: Compounds of the present invention were tested for LTA hydrolase inhibitor activity against recombinant human LTA hydrolase (rhLTAH).
One or more predetermined amounts of a compound of the invention were incubated in assay buffer (0.1 M potassium phosphate, 5 mg/ml fatty acid free BSA, 10% DMSO, pH 7.4) for 10 minutes at room temperature with 250 ng of recombinant hLTA4 H to allow binding, if any, between the enzyme and inhibitor. […] LTA4 (free acid) was thawed and diluted in assay buffer (minus DMSO) to a concentration of 350 ng/ml and 25 μl (8ng) of LTA4 substrate was added to the reaction mixture (total volume of reaction mixture=200 μl at time zero. Each reaction was carried out at room temperature for 10 minutes. The reaction was stopped by diluting 25 μl of the reaction mixture with 500 μl of the assay buffer without DMSO. LTA4 was quantified in the diluted sample by a commercially available enzyme-linked immunoassay [Caymen Chemical Col. Ann Arbor, Mich.] using the method recommended in the manufacturer's instructions and compared to the amount of LTA4 produced in a negative control (i.e., essentially identical conditions except without addition of an inhibitor compound). The IC50 was routinely calculated from the data produced.

[2] = test system: calcium ionophore-induced LTB4 production in human blood; assay: Inhibition of calcium ionophore-induced LTB4 production in human blood (HWB); type: cell-based; settings: read-out: Inhibition of Calcium Ionophore-induced LTB4 Production in Human Blood (HWB) IC50
Description: LTB4 and Thromboxane Production by Calcium Ionophore Stimulated Human Blood for LTB4 Hydrolase Inhibitor Activity
Human blood, collected in heparin-containing Vacutainer tubes, was diluted 1:4 with RPMI-1640 media and 200 μl of the diluted blood was added into each of a 96-well microtiter plate. […] After incubating for 15 minutes at 37° C. in a humidified incubator, calcium ionophore A13187 (Sigma Chemical Co., St. Louis, Mo.) was added to a final concentration of 20 mcg/ml and the incubation continued under the same conditions for an additional 10 minutes to allow LTB4 formation. The reaction was terminated by centrifugation (833 g, 10 minutes at 4° C.) and supernatant were analyzed for LTB4 and thromboxane by commercially available enzyme-linked immunoassays (Caymen Chemical Co., Ann Arbor, Mich.) according to the manufacturer's instructions. The IC50 of each test compound was determined from the amount of inhibition of LTB4 production as compared to an essentially identical assay in which no inhibitor compound was present.

[3] = test system: LTB4 production by calcium ionophore stimulated mouse blood; assay: Murine ex vivo LTB4 inhibition (calcium ionophore stimulated mouse blood after oral dosing); type: in vivo; settings: for inhibition at 10 mg/kg: read-out: Murine Ex Vivo LTB4 Inhibition, % I LTB4 at 1 hour after administration
Description: The compounds were administered by oral garage to adult male outbred mice weighing approximately 20-30 gm at a dose of 10 mg/kg body weight. […] The mixture was incubated for 10 minutes at 37° C. in a humidified incubator. The reaction was terminated by centrifugation (833 g. 10 minutes at 4° C.). Supernatant were analyzed for LTB4 and thromboxane by commercially available enzyme-linked immunoassays [Caymen Chemical Co., Ann Arbor, Mich.] in accordance with the manufacturer's instructions. The percent inhibition was determined by comparison to animals treated identically except that the solution administered by oral gavage was devoid of inhibitor compound.

[4] = test system: LTA4 hydrolase; settings: cited from earlier work
[5] = human whole blood diluted 1:4, 15 min preincubation at 37° C., ionophore 20 mcg/ml, 10 min
[6] = mouse, oral gavage, 10 mg/kg (* indicates 50 mg/kg), 1 hour after administration, ionophore A23187 20 mcg/ml

Row | pIC50 [1] | pIC50 [2, 5] | Molecule | inhibition at 10 mg/kg [3, 6] | pIC50 ([2]; Homo sapiens) | inhibition at 10 mg/kg ([3]; Mus musculus, po, 1 h) | Murine Ex Vivo LTB4 Inhibition, % I LTB4 at 1 hour after administration [3, 6] | LTA4 hydrolase inhibitory activity [4]
1 | 9.30 | 7.21 | CN(CCCOc1ccc(Cc2cccs2)cc1)CCC(=O)NS(C)(=O)=O [Example 10, N-(Methylsulfonyl)-3-[methyl[3-[4-[(2-thienyl)-methyl]phenoxy]propyl]amino]propanamide] | 93% |  |  |  | 
2 | 7.48 | 7.18 | CCN(CCCOc1ccc(Cc2cccs2)cc1)CCC(=O)NS(C)(=O)=O [Example 11, 3-[Ethyl[3-[4-[(2-thienyl)methyl]phenoxy]propyl]-amino]-N-(methylsulfonyl)propanamide monohydrochloride] | 86% |  |  |  | 
3 | 8.64 | 7.40 | CC(C)N(CCCOc1ccc(Cc2cccs2)cc1)CCC(=O)NS(=O)(=O)c1ccccc1 [Example 13, 3-[(1-methylethyl)[3-[4-[(2-thienyl)methyl-]phenoxy]propyl]amino]-N-(phenylsulfonyl)-propanamide, monohydrochloride] |  |  |  |  | 
4 | 7.96 | 7.09 | CCN(CCCOc1ccc(Cc2ccsc2)cc1)CCC(=O)NS(=O)(=O)c1ccccc1 [Example 14, monohydrate] | 87% |  |  |  | 
5 |  | 6.64 | CCN(CCCOc1ccc(Cc2ccsc2)cc1)CCC(=O)NS(C)(=O)=O [Example 15, 3-[Ethyl[3-[4-[(3-thienyl)methyl]phenoxy]propyl]-amino]-N-(methylsulfonyl)propanamide monohydrochloride] | 79% |  |  |  | 
6 | 6.35 | 6.70 | CC(C)N(CCCOc1ccc(Cc2ccsc2)cc1)CCC(=O)NS(C)(=O)=O [Example 16] | 85% |  |  |  | 
7 | 9.30 | 6.89 | CN(CCCOc1ccc(Cc2ccsc2)cc1)CCC(=O)NS(=O)(=O)c1ccccc1 [Example 17, monohydrochloride] | 93% |  |  |  | 
8 | 7.05 | 6.82 | CC(C)N(CCCOc1ccc(Cc2ccsc2)cc1)CCC(=O)NS(=O)(=O)c1ccccc1 [Example 21] | 60% |  |  |  | 
9 | 8.89 | 7.15 | CN(CCCOc1ccc(Cc2ccccc2)cc1)CCC(=O)NS(C)(=O)=O [Example 23] | 100% |  |  |  | 
10 | 5.67 | 5.57 | CS(=O)(=O)NC(=O)CCN(CCCOc1ccc(Cc2ccccc2)cc1)C1CC1 [Example 24] |  |  |  |  | 
11 | 7.00 | 6.96 | CC(C)(C)N(CCCOc1ccc(Cc2ccccc2)cc1)CCC(=O)NS(C)(=O)=O [Example 25] | 45% |  |  |  | 
12 | 7.10 | 6.89 | CCN(CCCOc1ccc(Cc2ccccc2)cc1)CCC(=O)NS(=O)(=O)c1ccccc1 [Example 29] | 65% |  |  |  | 

Second part, the molecule before the results:

Row | Molecule | pIC50 [1] | pIC50 [2, 5] | inhibition at 10 mg/kg [3, 6] | pIC50 ([2]; Homo sapiens) | inhibition at 10 mg/kg ([3]; Mus musculus, po, 1 h) | Murine Ex Vivo LTB4 Inhibition, % I LTB4 at 1 hour after administration [3, 6] | LTA4 hydrolase inhibitory activity [4]
13 | CN(CCCOc1ccc(Cc2cccs2)cc1)CCC(=O)NS(=O)(=O)c1ccccc1 [Example 9] | > 9.30 | 7.10 | 87% |  |  |  | 
14 | CC(C)N(CCCOc1ccc(Cc2cccs2)cc1)CCC(=O)NS(C)(=O)=O [Example 12, 3-[(1-methylethyl)[3-[4-[(2-thienyl)methyl-]phenoxy]propyl]-amino]-N-(methylsulfonyl)-propanamide monohydrochloride] | 7.92 | 7.10 | 68% |  |  |  | 
15 | CN(CCCOc1ccc(Cc2ccsc2)cc1)CCC(=O)NS(C)(=O)=O [Example 18, N-(methylsulfonyl)-3-[methyl[3-[4-[(3-thienyl)methyl]phenoxy]propyl]-amino]propanamide] | 7.70 | 6.72 | 94% |  |  |  | 
16 | CN(CCCOc1ccc(Cc2ccccc2)cc1)CCC(=O)NS(=O)(=O)c1ccccc1 [Example 22] | 9.00 |  |  | 7.12 | 94% |  | 
17 | CC(C)N(CCCOc1ccc(Cc2ccccc2)cc1)CCC(=O)NS(C)(=O)=O [Example 26] | 6.80 | 6.66 | 81% |  |  |  | 
18 | CC(C)N(CCCOc1ccc(Cc2ccccc2)cc1)CCC(=O)NS(C)(=O)=O [Example 27] | 7.33 | 7.00 |  |  |  | 44% | 
19 | CCN(CCCOc1ccc(Cc2ccccc2)cc1)CCC(=O)NS(C)(=O)=O [Example 28] | 6.27 | 6.74 | 89% |  |  |  | 
20 | CC(C)C[C@H](NC(=O)[C@@H](O)[C@H](N)Cc1ccccc1)C(=O)O [bestatin] |  |  |  |  |  |  | exhibit LTA4 hydrolase inhibitory activity
21 | C[C@H](CS)C(=O)N1CCC[C@H]1C(=O)O [captopril] |  |  |  |  |  |  | exhibit LTA4 hydrolase inhibitory activity
22 | N-(methylsulfonyl)-3-[propyl[3-[4-[(3-thienyl)methyl]phenoxy]propyl]-amino]propanamide [Example 20] | 6.82 | 6.82 |  |  |  | 56% | 
23 | N-(phenylsulfonyl)-3-[propyl[3-[4-[(3-thienyl)methyl]phenoxy]propyl]-amino]propanamide monohydrochloride [Example 19] | 7.05 | 7.12 |  |  |  | 45% | 
